From the supplement of paper PMC10307832

Legend:
Experiment in all cases: relative viability (nuclei count vs DMSO), 5 days (fraction); higher = more cells survive
[1] = compound: C1=CC2=C(C=C(C(=C2N=C1)O)N=NC3=CC4=C(C=C3)C=C(C=C4)S(=O)(=O)O)S(=O)(=O)O + CC1(C)CCC(c2ccc(Cl)cc2)=C(CN2CCN(c3ccc(C(=O)NS(=O)(=O)c4ccc(N[C@H](CCN5CCOCC5)CSc5ccccc5)c(S(=O)(=O)C(F)(F)F)c4)cc3)CC2)C1 [Navitoclax] (partner 0.5 µM)
Procedure, shortened: (§1)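 Lung cancer cell lines were seeded in 1536-well plates and dosed by pin tool the next day, with either a single drug or a fixed anchor-drug dose combined with five library-drug doses (not always all listed) spaced in √10 steps. Five days later, one step fixed the cells and stained their nuclei (final 0.05% Triton X-100, 1% formaldehyde, 1 ug/ml Hoechst), and nuclei were counted on 4× images. Relative viability is the nuclei count in treated wells divided by the count in vehicle wells, and each value is the median of duplicate plates.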

[2] = compound: O=C(NC1CCNCC1)c1n[nH]cc1NC(=O)c1c(Cl)cccc1Cl [AT-7519] + N=C(N)NC(=N)NCCc1ccccc1 [Phenformin] (partner 250 µM)
Procedure, shortened: as §1

[3] = compound: O=C(NC1CCNCC1)c1n[nH]cc1NC(=O)c1c(Cl)cccc1Cl [AT-7519]
Procedure, shortened: (§2)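 A plate was accepted only when its control CV was below 25% and the cells had doubled at least once. Viability is defined from nuclear counts as treated wells divided by vehicle wells, with the median taken across plates. That median covers lung cancer cell lines grown in 1536-well plates, dosed by pinning at five √10-spaced library-drug concentrations, and counted in MetaXpress from 4× Hoechst images after 5 days.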

[4] = compound: C1=CC2=C(C=C(C(=C2N=C1)O)N=NC3=CC4=C(C=C3)C=C(C=C4)S(=O)(=O)O)S(=O)(=O)O
Procedure, shortened: as §2

Row | Cell Line | relative viability ([1]; first compound 0.08 µM) | relative viability ([1]; first compound 0.253 µM) | relative viability ([1]; first compound 0.8 µM) | relative viability ([1]; first compound 2.53 µM) | relative viability ([1]; first compound 8 µM) | relative viability ([2]; first compound 0.01 µM) | relative viability ([2]; first compound 0.03162 µM) | relative viability ([2]; first compound 0.3162 µM) | relative viability ([2]; first compound 1 µM) | relative viability ([3]; 0.01 µM) | relative viability ([3]; 0.03162 µM) | relative viability ([3]; 0.3162 µM) | relative viability ([3]; 1 µM) | relative viability ([4]; 0.08 µM) | relative viability ([4]; 0.253 µM) | relative viability ([4]; 0.8 µM) | relative viability ([4]; 2.53 µM) | relative viability ([4]; 8 µM)
1 | CAL-12T | 1.2 | 1.45 | 1.14 | 1.5 | 1.35 | 0.531 | 0.579 | 0.272 | 0.188 | 0.98 | 1.06 | 0.552 | 0.256 | 1.08 | 0.986 | 0.928 | 1.09 | 0.932
2 | RERF-LC-KJ | 1.12 | 1.01 | 0.963 | 1.05 | 0.877 | 0.456 | 0.418 | 0.388 | 0.217 | 1.01 | 0.995 | 0.991 | 0.675 | 1.08 | 1.04 | 1.03 | 1.01 | 0.967
3 | NCI-H1650 | 1.36 | 1.27 | 1.28 | 1.2 | 1.12 | 0.466 | 0.427 | 0.292 | 0.15 | 0.985 | 1.03 | 0.88 | 0.328 | 0.893 | 0.93 | 0.875 | 0.993 | 0.773
4 | BEN | 0.0579 | 0.0527 | 0.0545 | 0.0678 | 0.0519 | 0.522 | 0.234 | 0.269 | 0.257 | 0.917 | 0.876 | 1.15 | 0.887 | 0.976 | 0.933 | 0.895 | 0.986 | 0.777
5 | EMC-BAC-2 | 1.45 | 1.11 | 1.13 | 1.2 | 1.11 | 0.52 | 0.524 | 0.495 | 0.585 | 0.954 | 0.934 | 0.996 | 1.11 | 0.916 | 1.02 | 1.03 | 1.01 | 0.93
6 | LU99A | 0.815 | 0.913 | 0.8 | 0.813 | 0.742 | 0.826 | 0.769 | 0.802 | 0.724 | 1.02 | 0.857 | 0.826 | 0.974 | 1.02 | 0.936 | 0.901 | 0.95 | 0.948
7 | ABC-1 | – | – | – | – | – | 0.245 | 0.242 | 0.234 | 0.164 | 1.1 | 0.876 | 0.787 | 0.699 | 0.923 | 0.743 | 0.744 | 1.08 | 0.776
8 | NCI-H1299 | 1.09 | 1.05 | 0.976 | 1.08 | 1.06 | – | – | – | – | 1.05 | 1.02 | 1.02 | 1.18 | 1.02 | 1.01 | 1 | 1.04 | 1
9 | EBC-1 | 0.394 | 0.474 | 0.415 | 0.452 | 0.371 | – | – | – | – | 0.934 | 0.885 | 0.923 | 0.645 | 1.04 | 0.933 | 0.941 | 0.99 | 1.07
10 | NCI-H1648 | – | – | – | – | – | – | – | – | – | 0.877 | – | 0.832 | 0.711 | 0.747 | 0.816 | 0.677 | 0.682 | 1.04
11 | NCI-H650 | – | – | – | – | – | 0.492 | 0.465 | 0.49 | 0.421 | 1.02 | 0.871 | 1.01 | 1.03 | 0.883 | 0.937 | 0.86 | 0.969 | 0.671
12 | NCI-H358 | – | – | – | – | – | 0.342 | 0.313 | 0.205 | 0.087 | 0.889 | 0.86 | 0.85 | 0.31 | 1.08 | 0.978 | 0.841 | 0.943 | 1.01
13 | NCI-H1563 | – | – | – | – | – | 0.66 | 0.625 | 0.645 | 0.651 | 0.955 | 0.934 | 1.02 | 0.998 | 1.09 | 0.96 | 0.995 | 0.949 | 0.878
14 | NCI-H522 | – | – | – | – | – | – | 0.681 | 0.662 | 0.675 | 0.814 | 0.933 | 0.873 | 0.897 | 0.965 | 0.984 | 0.872 | 1.02 | 0.774
15 | IA-LM | 0.769 | 0.885 | 0.819 | 0.75 | 0.694 | – | – | – | – | 0.912 | 0.874 | 0.856 | 0.854 | 1.02 | 0.954 | 0.785 | 0.896 | 0.934
16 | NCI-H1703 | 1.02 | 1.16 | 1.12 | 1.27 | 1.13 | – | – | – | – | 0.865 | 0.845 | 0.866 | 0.261 | 0.942 | 0.772 | 0.99 | 0.884 | 1.04
17 | LCLC-103H | – | – | – | – | – | 0.32 | 0.296 | 0.313 | 0.33 | 1.08 | 0.983 | 1.01 | 1.07 | 1.02 | 0.998 | 0.976 | 1.02 | 1.03
18 | SW 900 | – | – | – | – | – | 0.697 | 0.645 | 0.604 | 0.196 | 0.771 | 0.866 | 0.786 | 0.657 | 1.07 | 0.971 | 0.802 | 0.918 | 0.841
